Converted amounts (≈) assume the structure as drawn.
Experiments:
[1] = test system: BXPC-3; assay: Antiproliferative activity against human BXPC-3 cells assessed as reduction in cell growth incubated for 72 hrs by MTT assay; type: functional, cell-based
[2] = test system: Escherichia coli; assay: Antimicrobial activity against Escherichia coli assessed as reduction in microbial growth; type: functional, organism-based
[3] = test system: A549; assay: Cytotoxicity against human A549 cells assessed as reduction in cell growth by resazurin assay; type: functional, cell-based
[4] = test system: Bacillus subtilis; assay: Antibacterial activity against Bacillus subtilis assessed as reduction in bacterial growth; type: functional, organism-based
[5] = test system: HL-60; assay: Cytotoxicity against human HL-60 cells assessed as reduction in cell growth by resazurin assay; type: functional, cell-based
[6] = test system: NIH3T3; assay: Cytotoxicity against mouse NIH/3T3 cells assessed as reduction in cell growth by resazurin assay; type: functional, cell-based
[7] = Antioxidant activity assessed as hydroxyl radical scavenging activity; type: functional
[8] = test system: PC-3; assay: Growth inhibition of human PC-3 cells measured for 48 hrs by SRB assay; type: functional
[9] = test system: A549; assay: Growth inhibition of human A549 cells measured for 48 hrs by SRB assay; type: functional
[10] = test system: HepG2; assay: Growth inhibition of human HepG2 cells measured for 48 hrs by SRB assay; type: functional
[11] = test system: MCF7; assay: Growth inhibition of human MCF7 cells measured for 48 hrs by SRB assay; type: functional
[12] = Antioxidant activity assessed as DPPH radical scavenging activity; type: functional
[13] = test system: MCF7; assay: Antiproliferative activity against human MCF7 cells; type: functional, cell-based
[14] = test system: HCT-116; assay: Antiproliferative activity against human HCT-116 cells; type: functional, cell-based
[15] = test system: T47D; assay: Antiproliferative activity against human T47D cells; type: functional, cell-based
[16] = test system: LoVo; assay: Antiproliferative activity against human LoVo cells; type: functional, cell-based
[17] = test system: MDA-MB-231; assay: Antiproliferative activity against human MDA-MB-231 cells; type: functional, cell-based
[18] = test system: A549; assay: Antiproliferative activity against human A549 cells assessed as reduction in cell viability incubated for 24 hrs by MTT assay; type: functional, cell-based; settings: A549, 24 h
[19] = test system: HeLa; assay: Antiproliferative activity against human HeLa cells assessed as reduction in cell viability incubated for 24 hrs by MTT assay; type: functional, cell-based
[20] = test system: HCT-116; assay: Antiproliferative activity against human HCT-116 cells assessed as reduction in cell viability incubated for 24 hrs by MTT assay; type: functional, cell-based; settings: HCT-116, 24 h
[21] = Cytotoxicity against human BEAS-2B cells assessed as reduction in cell viability by MTT assay; type: toxicity, cell-based
[22] = test system: A549; assay: Cytotoxicity against human A549 cells assessed as reduction in cell viability by MTT assay; type: functional, cell-based
[23] = test system: MCF7; assay: Cytotoxicity against human MCF7 cells assessed as reduction in cell viability by MTT assay; type: functional, cell-based
[24] = test system: HeLa; assay: Antiproliferative activity against human HeLa cells assessed as reduction in cell viability incubated for 48 hrs by MTT assay; type: functional, cell-based
[25] = biological target: Cyclin-dependent kinases regulatory subunit 1/S-phase kinase-associated protein 2 (Homo sapiens) (UniProt P61024+Q13309); assay: Inhibition of SKP2/CKS1 (unknown origin) protein-protein interaction at 50 uM relative to control; type: protein assay
[26] = test system: DU-145; assay: Cytotoxicity against human DU-145 cells assessed as reduction in cell viability incubated for 48 hrs by SRB assay; type: functional, cell-based; settings: DU-145, 48 h
[27] = test system: HepG2; assay: Cytotoxicity against human HepG2 cells assessed as reduction in cell viability incubated for 48 hrs by SRB assay; type: functional, cell-based; settings: HepG2, 48 h
[28] = test system: MDA-MB-231; assay: Cytotoxicity against human MDA-MB-231 cells assessed as reduction in cell viability incubated for 48 hrs by SRB assay; type: functional, cell-based; settings: MDA-MB-231, 48 h
[29] = test system: HeLa; assay: Cytotoxicity against human HeLa cells assessed as reduction in cell viability incubated for 48 hrs by SRB assay; type: functional, cell-based

Chain of Cyclin-dependent kinases regulatory subunit 1/S-phase kinase-associated protein 2 (Homo sapiens) (P61024 2-79 limits assumed): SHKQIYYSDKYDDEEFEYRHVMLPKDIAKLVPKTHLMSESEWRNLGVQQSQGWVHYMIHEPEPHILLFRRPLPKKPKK
Chain of Cyclin-dependent kinases regulatory subunit 1/S-phase kinase-associated protein 2 (Homo sapiens) (Q13309 whole entry partner): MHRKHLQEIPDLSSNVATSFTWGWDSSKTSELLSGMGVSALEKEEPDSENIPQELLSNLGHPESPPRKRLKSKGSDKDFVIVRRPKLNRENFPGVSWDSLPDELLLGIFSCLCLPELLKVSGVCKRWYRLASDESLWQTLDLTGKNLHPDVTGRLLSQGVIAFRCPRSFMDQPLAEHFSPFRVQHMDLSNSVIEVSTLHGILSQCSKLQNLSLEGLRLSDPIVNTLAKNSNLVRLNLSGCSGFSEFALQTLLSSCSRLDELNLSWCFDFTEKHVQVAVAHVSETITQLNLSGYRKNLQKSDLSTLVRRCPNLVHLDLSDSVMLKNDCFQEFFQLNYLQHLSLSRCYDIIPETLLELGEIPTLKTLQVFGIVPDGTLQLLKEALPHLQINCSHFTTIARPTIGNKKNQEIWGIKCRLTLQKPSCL

Cc1ccc([C@H]2NC(=O)n3c(cc4ccccc43)C23CC3)cc1 (stereo in doubt; (R)-16a)
IC50 ([1]; Homo sapiens, BXPC-3, 72 h): 6.1 µM

Cc1cc(C)cc(P(=O)(c2cc(C)cc(C)c2)C2C(C#N)=C(N)Oc3ccc(F)cc32)c1 (stereo not given)
IC50 [2]: > 10 µM | IC50 [3]: > 30 µM | IC50 [4]: 5.03 µM | IC50 [5]: 10.1 µM | IC50 [6]: > 30 µM

O=C1O[C@H]([C@@H](O)CO)C(O)=C1O [ASCORBIC ACID]
IC50 [7]: 25.1 µM | GI50 [8]: < 10 µg/mL | GI50 [9]: < 10 µg/mL | GI50 [10]: < 10 µg/mL | GI50 [11]: < 10 µg/mL | IC50 [12]: 27.3 µM

CCc1cc(C(=O)c2ccccc2Cl)c(NC(c2cc(OC)c(OC)c(OC)c2)c2c(O)ccc3ccccc23)s1 (stereo not given)
IC50 [7]: 32.8 µM | GI50 [8]: < 10 µg/mL | GI50 [9]: < 10 µg/mL | GI50 [10]: < 10 µg/mL | GI50 [11]: < 10 µg/mL | IC50 [12]: 33.5 µM

Cc1ccc([C@@H]2NC(=O)n3c(cc4ccccc43)C23CC3)cc1
IC50 ([1]; Homo sapiens, BXPC-3, 72 h): 1.7 µM

C=C1N(S(=O)(=O)c2ccc(C)cc2)c2ccccc2[C@]1(C)N
IC50 [13]: 2.21 µM | IC50 [14]: 4.3 µM | IC50 [15]: 2.88 µM | IC50 [16]: 3.65 µM | IC50 [17]: 2.15 µM

COc1ccc(C2c3ccccc3-c3nc(C)cc(C(F)(F)F)c32)cc1OC (stereo not given)
IC50 [18]: 19.5 µM | IC50 [19]: 5.52 µM | IC50 [20]: 15.4 µM

Cc1cc(C)cc(P(=O)(c2cc(C)cc(C)c2)C2C(C#N)=C(N)Oc3c(Br)cccc32)c1 (stereo not given)
IC50 [2]: > 10 µM | IC50 [3]: > 30 µM | IC50 [4]: > 10 µM | IC50 [5]: 9.8 µM | IC50 [6]: > 30 µM

CN1C(=O)C2(N=C(c3ccccc3)N3CCc4cc(Br)cc2c43)c2ccccc21 (stereo not given)
IC50 [18]: 1 µM

COC(=O)c1nc2nc(Oc3ccccc3)c(C#N)c(-c3ccc(OC)cc3)c2c(N)c1C(=O)OC
IC50 [21]: 51.3 µg/mL (≈ 106 µM) | IC50 [22]: 10.1 µg/mL (≈ 20.9 µM) | IC50 [23]: 48.2 µg/mL (≈ 99.6 µM)

Cc1nn(-c2ccccc2Cl)c(O)c1-c1ccccc1C1=Nc2ccccc2C1(C)C
IC50 [24]: 26.7 µM

CC(C)C[C@H](NC(=O)[C@H](Cc1ccccc1)NC(=O)c1cnccn1)B(O)O [BORTEZOMIB]
IC50 [5]: 7.42 µM

CCc1cc(C(=O)c2ccccc2Cl)c(NC(c2cccs2)c2c(O)ccc3ccccc23)s1 (stereo not given)
IC50 [7]: 34.8 µM | GI50 [8]: < 10 µg/mL | GI50 [9]: < 10 µg/mL | GI50 [10]: < 10 µg/mL | GI50 [11]: < 10 µg/mL | IC50 [12]: 32.1 µM

Cc1cc(C(F)(F)F)c2c(n1)-c1ccccc1C2c1ccsc1 (stereo not given)
IC50 [18]: > 50 µM | IC50 [19]: 2.32 µM | IC50 [20]: > 50 µM

N#CC1=C(N)Oc2ccccc2C1P(=O)(OCc1ccccc1)OCc1ccccc1 (stereo not given)
IC50 [2]: > 10 µM | IC50 [3]: 26.5 µM | IC50 [4]: > 10 µM | IC50 [5]: 6.25 µM | IC50 [6]: 8.73 µM

Nc1ccn([C@@H]2O[C@H](CO)[C@@H](O)C2(F)F)c(=O)n1 [GEMCITABINE]
IC50 ([1]; Homo sapiens, BXPC-3, 72 h): 2.3 µM

CCc1cc(C(=O)c2ccccc2Cl)c(NC(c2ccc(F)cc2)c2c(O)ccc3ccccc23)s1 (stereo not given)
IC50 [7]: 31.3 µM | GI50 [8]: < 10 µg/mL | GI50 [9]: < 10 µg/mL | GI50 [10]: < 10 µg/mL | GI50 [11]: < 10 µg/mL | IC50 [12]: 29.8 µM

CN[C@@H]1[C@@H](O)[C@@H](O[C@@H]2[C@@H](O)[C@H](O[C@H]3O[C@H](CN)CC[C@H]3N)[C@@H](N)C[C@H]2N)OC[C@]1(C)O [GENTAMICIN C1A]
IC50 [4]: 0.115 µM

COc1cc(OC)c(-c2cc(CC3c4ccccc4C(=O)N3c3ccc(C)cc3)nc3ncnn23)c(OC)c1 (stereo not given)
inhibition [25]: 45%

O=C(CCCCCCC(=O)Nc1ccccc1)NO [VORINOSTAT]
IC50 [14]: 10.1 µM | IC50 [16]: 0.74 µM

COc1ccccc1C1=C2C(=O)c3ccccc3C(=O)/N=C3/c4ccccc4C(=O)C23c2cccc3c2N1CC3 (stereo not given)
IC50 [18]: 8.43 µM | IC50 [19]: 1.54 µM | IC50 [20]: 2.1 µM

COc1cccc2c1C(=O)c1c(O)c3c(c(O)c1C2=O)C[C@@](O)(C(=O)CO)C[C@@H]3O[C@H]1C[C@H](N)[C@H](O)[C@H](C)O1.Cl [DOXORUBICIN HYDROCHLORIDE]
IC50 [26]: 3.82 µg/mL | IC50 [27]: 26.7 µg/mL | IC50 [28]: 8.64 µg/mL | IC50 [29]: 12.6 µg/mL

COc1ccc(N2C(=O)c3ccccc3C2Cc2cc(-c3c(OC)cc(OC)cc3OC)n3ncnc3n2)cc1 (stereo not given)
inhibition [25]: 54%

Cc1nn(-c2ccc(C(C)C)cc2)c(O)c1-c1ccccc1C1=Nc2ccccc2C1(C)C
IC50 [24]: 23.8 µM

COc1ccc(C2c3ccccc3-c3nc(C)cc(C(F)(F)F)c32)cc1 (stereo not given)
IC50 [18]: 12.3 µM | IC50 [19]: 6.65 µM | IC50 [20]: 14.9 µM

COC(=O)c1nc2nc(Oc3ccccc3)c(C#N)c(-c3cccc([N+](=O)[O-])c3)c2c(N)c1C(=O)OC
IC50 [21]: 4.09 µg/mL (≈ 8.19 µM) | IC50 [22]: 6.12 µg/mL (≈ 12.3 µM) | IC50 [23]: 1.48 µg/mL (≈ 2.96 µM)

O=C1/N=C2/c3ccccc3C(=O)C23C(=C(c2cccs2)N2CCc4cccc3c42)C(=O)c2ccccc21 (stereo not given)
IC50 [18]: 9.18 µM | IC50 [19]: 1.6 µM | IC50 [20]: 1.63 µM

COC(=O)c1nc2nc(Oc3ccccc3)c(C#N)c(-c3ccc([N+](=O)[O-])cc3)c2c(N)c1C(=O)OC
IC50 [21]: 51.3 µg/mL (≈ 103 µM) | IC50 [22]: 8.24 µg/mL (≈ 16.5 µM) | IC50 [23]: 7.57 µg/mL (≈ 15.2 µM)

Cc1ccc(C2NC(=O)n3c(cc4ccccc43)C23CC3)cc1 (racemic)
IC50 ([1]; Homo sapiens, BXPC-3, 72 h): 3.1 µM

Cc1nn(-c2ccc(C#N)cc2)c(O)c1-c1ccccc1C1=Nc2ccccc2C1(C)C
IC50 [24]: 27.3 µM

Cc1ccc([C@H]2NC(=O)n3c(cc4ccccc43)C23CC3)cc1 (stereo in doubt; 16a)
IC50 ([1]; bxpc-3): 8.6 µM

COc1cc(OC)c(-c2cc(CC3c4ccccc4C(=O)N3c3ccc(Br)cc3)nc3ncnn23)c(OC)c1 (stereo not given)
inhibition [25]: 57%

COc1cccc2c1C(=O)c1c(O)c3c(c(O)c1C2=O)C[C@@](O)(C(=O)CO)C[C@@H]3O[C@H]1C[C@H](N)[C@H](O)[C@H](C)O1 [DOXORUBICIN]
GI50 [8]: < 10 µg/mL | GI50 [9]: < 10 µg/mL | GI50 [10]: < 10 µg/mL | IC50 [21]: 4.18 µg/mL (≈ 7.69 µM) | GI50 [11]: < 10 µg/mL | IC50 [3]: 0.31 µM | IC50 [6]: 5.65 µM

O=NN(CCCl)C(=O)NCCCl [CARMUSTINE]
IC50 [21]: 6.52 µg/mL (≈ 30.5 µM) | IC50 [22]: 6.35 µg/mL (≈ 29.7 µM) | IC50 [23]: 9.34 µg/mL (≈ 43.6 µM)

C[C@H]1c2cccc(O)c2C(=O)C2=C(O)[C@]3(O)C(=O)C(C(N)=O)=C(O)[C@@H](N(C)C)[C@@H]3[C@@H](O)[C@@H]21 [DOXYCYCLINE ANHYDROUS]
IC50 [2]: 0.1 µM | IC50 [4]: 0.126 µM
